Patent publication EP0639202B1, “STABLE POLYPEPTIDE COMPOSITION” (COR THERAPEUTICS, INC., priority 1992, dated 1993)
Where a SMILES comes first, the peptide text is derived from it. Bridges are numbered along the chain shown (N, C = ends). [ ]: non-standard residue; d: D form. hArg = N=C(N)NCCCC[C@H](N)C(=O)O; Mpa = O=C(O)CCS

How the values were obtained:
[1] = Storage stability of polypeptide in citrate buffer solution, analysed by reversed phase HPLC; format: physicochemical
Description: One ml aliquots of the above solution of polypeptide in citrate buffer were sealed in borosilicate glass ampules under sterile conditions and stored at a constant temperature. Test sample ampules from each pH and temperature condition 4°C, 50°C and 70°C were removed periodically, visually assessed and then analyzed separately by HPLC using a mobile phase comprising acetonitrile (MeCN) and 0.1% trifluoroacetic (TFA) in water. This stability was evaluated by conventional assay methods applicable to purity, weight or size of polypeptides. These included not only visual evaluations, such as discoloration, transparency and precipitation, and included assays normally applied to separate polypeptides from each other and from other materials by reversed phase high performance liquid chromatography (HPLC).
Results of these experiments are set forth in Table 1 in which the stability is expressed in terms of the percentage of main peak of original polypeptide found in the sample analyzed by HPLC. The composition was also found to be normal on visual evaluation. […]

[2] = biological target: ADP-induced human platelet aggregation (Homo sapiens, UniProt P05106+P08514); assay: Standard platelet aggregation inhibition assay; format: cell-based
Source text: In addition to the above plate assays, other assays for platelet aggregation inhibition activity and related activities are also available, as set forth above. In summary, a list of commonly employed assays is as follows: • 1. The plate assays utilizing specific receptors described in the previous paragraphs; • 2. Standard assays directly applied to platelet aggregation, such as those described by Gann, Z.-R., et al., J Biol Chem (1988) 263:19827-19832; Huang, T.F., et al., J Biol Chem (1987) 262:16157-16163; Biochemistry (1989) 28:661-666, cited above and incorporated herein by reference; • 3. An in vivo thrombosis model in dogs as described by Folts, J.D., et al., Circulation (1976) 54:365; and • 4. Effect on cell adhesion using S35 methionine-labeled cells as described hereinbelow in Example 10.
IC50 values for the analogs of the invention in this assay are as follows:
A solution was formed in 1.0 M citric acid of greater than 95% pure cyclic form of Mpr-L-homoarginine-Gly-Asp-Trp-Pro-Cys-NH2 • acetate polypeptide (I) at a concentration of up to 200 mg per ml of solution. This solution was diluted to the desired final peptide concentration as follows: This solution was first diluted to about 85% of the final volume with water. The pH of the solution was adjusted to 5.0-5.5 using sodium hydroxide. The solution was then diluted to the final volume with water. Compositions having a concentration of (I) of 0.5 mg/ml and 5.0 mg/ml were formulated and evaluated for stability by HPLC, UV and visual inspection as described in Example 1. The compositions were also evaluated for platelet aggregation inhibiting activity using the assay described above.

GP IIb-IIIa = biological target: T1, GP IIb-IIIa (Homo sapiens, UniProt P05106+P08514); assay: Plate assay: inhibition of fibrinogen binding to immobilized GP IIb-IIIa; settings: for differential: inhibiting the binding of fibrinogen to GP IIb-IIIa as compared to vitronectin to vitronectin receptor (in words): plate assays
T1 construct: from tissue
Description: In the assay, GP IIb-IIIa, prepared in purified form, for example as described by Fitzgerald, L.A., et al., Anal Biochem (1985) 151:169-177, incorporated herein by reference, is coated onto a solid support such as beads, test tubes, or microtiter plates. The coated support is then contacted with fibrinogen and with the test material and incubated for a sufficient time to permit maximal binding of fibrinogen to the immobilized GP IIb-IIIa. Fibrinogen is typically provided at a concentration of about 5-50 nM and the test material can, if desired, be added at a series of dilutions. Typical incubations are 2-4 hr at 35°C, the time and temperature being interdependent.
After incubation, the solution containing the fibrinogen and test material is removed and the level of binding of fibrinogen measured by quantitating bound fibrinogen to GP IIb-IIIa. Any suitable means of detection can be used, but it is convenient to employ labeled fibrinogen, for example using radioactive, fluorescent or biotinylated labels. Such methods are well known and need not be elaborated here.
Assessment of the results is aided by employing a control sample, usually identical to the test sample except that the test substance is absent. In this case, percent inhibition may be calculated using the basis, so that % inhibition =(control - test)/(control)x 100. [formula] Other measures of inhibition effectiveness, such as IC50, can also be used.

[3] = Storage stability of polypeptide in citrate buffer solution, analysed by reversed phase HPLC; format: physicochemical; set-up: key: % of main peak of original polypeptide found by HPLC; settings: 25 mM citrate buffer pH 5.25, about 1 mg/mL
M21 melanoma cells = assay: Cell adhesion assay: 35S-methionine labelled cells on vitronectin-coated plates; format: cell-based; settings: for effect on cell adhesion / attachment to vitronectin (in words): M21 melanoma cells, vitronectin-coated plates
Description: M21 melanoma cells were labelled with ^35S-methionine, and then added to vitronectin-coated plates in the presence of the indicated concentrations of purified snake venom peptides. Cell attachment was measured by solubilizing the cells remaining after an incubation and wash, as previously describe.

vitronectin receptor = vitronectin receptor (Homo sapiens, UniProt P05106+P06756); assay: Plate assay: inhibition of vitronectin binding to vitronectin receptor; settings: at concentrations up to 1 uM
Source text: The PAI assay systems further include characterization of the PAI specificity by binding inhibition assays identical to that above but substituting other adhesive proteins for Fg and other receptors for GP IIb-IIIa. In particular, inhibition of the binding of vitronectin to the vitronectin receptor; fibronectin to the fibronectin receptor; fibronectin to GP IIb-IIIa and fibrinogen and/or vWF to GP IIb-IIIa can be assessed. The adhesive protein and receptors for these assays are available in the art.

T1 sequence (P08514 32-887 limits assumed): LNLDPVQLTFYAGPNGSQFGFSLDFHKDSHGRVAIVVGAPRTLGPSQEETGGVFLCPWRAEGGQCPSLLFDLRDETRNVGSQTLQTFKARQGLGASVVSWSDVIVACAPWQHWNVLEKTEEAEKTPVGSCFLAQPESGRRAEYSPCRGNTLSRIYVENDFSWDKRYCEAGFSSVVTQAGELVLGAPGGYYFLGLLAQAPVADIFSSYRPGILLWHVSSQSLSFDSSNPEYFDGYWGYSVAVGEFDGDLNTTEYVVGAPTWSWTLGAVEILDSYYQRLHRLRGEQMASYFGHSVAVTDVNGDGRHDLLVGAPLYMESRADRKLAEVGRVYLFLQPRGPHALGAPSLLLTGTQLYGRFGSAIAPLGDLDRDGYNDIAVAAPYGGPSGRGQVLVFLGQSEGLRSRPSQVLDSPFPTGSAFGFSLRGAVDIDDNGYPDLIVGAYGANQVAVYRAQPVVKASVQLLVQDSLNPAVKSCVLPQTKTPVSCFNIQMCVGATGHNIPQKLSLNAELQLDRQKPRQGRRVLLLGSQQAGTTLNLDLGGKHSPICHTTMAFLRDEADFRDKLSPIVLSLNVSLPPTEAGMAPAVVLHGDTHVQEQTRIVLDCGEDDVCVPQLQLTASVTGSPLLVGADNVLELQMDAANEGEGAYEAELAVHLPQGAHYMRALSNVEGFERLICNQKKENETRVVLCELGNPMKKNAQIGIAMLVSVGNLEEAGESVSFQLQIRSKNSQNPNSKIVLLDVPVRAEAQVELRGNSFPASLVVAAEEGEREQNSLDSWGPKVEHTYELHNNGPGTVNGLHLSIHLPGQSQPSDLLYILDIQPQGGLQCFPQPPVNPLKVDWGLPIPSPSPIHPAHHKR
T1 sequence (P08514 891-1039 limits assumed): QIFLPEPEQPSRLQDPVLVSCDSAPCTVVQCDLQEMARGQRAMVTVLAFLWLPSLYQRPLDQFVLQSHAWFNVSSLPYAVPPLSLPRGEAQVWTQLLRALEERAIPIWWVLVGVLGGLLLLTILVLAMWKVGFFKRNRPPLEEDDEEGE
T1 sequence (P05106 27-788): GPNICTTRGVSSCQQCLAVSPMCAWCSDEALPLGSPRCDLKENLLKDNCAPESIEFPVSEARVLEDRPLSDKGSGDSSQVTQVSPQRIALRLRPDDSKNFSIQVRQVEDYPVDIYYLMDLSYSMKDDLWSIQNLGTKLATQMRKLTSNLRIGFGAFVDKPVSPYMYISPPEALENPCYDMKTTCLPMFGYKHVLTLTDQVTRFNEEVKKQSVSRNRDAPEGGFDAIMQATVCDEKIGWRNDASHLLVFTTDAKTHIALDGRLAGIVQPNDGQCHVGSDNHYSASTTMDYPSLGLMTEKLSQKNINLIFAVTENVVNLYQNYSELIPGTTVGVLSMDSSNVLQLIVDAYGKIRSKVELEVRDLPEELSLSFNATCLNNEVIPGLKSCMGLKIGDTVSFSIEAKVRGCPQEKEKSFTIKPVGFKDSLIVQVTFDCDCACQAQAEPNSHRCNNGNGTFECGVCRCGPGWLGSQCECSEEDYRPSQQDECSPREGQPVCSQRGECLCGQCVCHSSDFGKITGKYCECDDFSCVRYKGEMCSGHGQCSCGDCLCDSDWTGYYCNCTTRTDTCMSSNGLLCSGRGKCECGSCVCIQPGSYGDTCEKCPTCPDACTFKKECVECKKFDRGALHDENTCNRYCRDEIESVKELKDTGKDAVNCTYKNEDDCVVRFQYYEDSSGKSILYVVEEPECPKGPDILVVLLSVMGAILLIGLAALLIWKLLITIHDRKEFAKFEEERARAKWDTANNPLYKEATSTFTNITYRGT
Chain of ADP-induced human platelet aggregation (P08514 32-1039): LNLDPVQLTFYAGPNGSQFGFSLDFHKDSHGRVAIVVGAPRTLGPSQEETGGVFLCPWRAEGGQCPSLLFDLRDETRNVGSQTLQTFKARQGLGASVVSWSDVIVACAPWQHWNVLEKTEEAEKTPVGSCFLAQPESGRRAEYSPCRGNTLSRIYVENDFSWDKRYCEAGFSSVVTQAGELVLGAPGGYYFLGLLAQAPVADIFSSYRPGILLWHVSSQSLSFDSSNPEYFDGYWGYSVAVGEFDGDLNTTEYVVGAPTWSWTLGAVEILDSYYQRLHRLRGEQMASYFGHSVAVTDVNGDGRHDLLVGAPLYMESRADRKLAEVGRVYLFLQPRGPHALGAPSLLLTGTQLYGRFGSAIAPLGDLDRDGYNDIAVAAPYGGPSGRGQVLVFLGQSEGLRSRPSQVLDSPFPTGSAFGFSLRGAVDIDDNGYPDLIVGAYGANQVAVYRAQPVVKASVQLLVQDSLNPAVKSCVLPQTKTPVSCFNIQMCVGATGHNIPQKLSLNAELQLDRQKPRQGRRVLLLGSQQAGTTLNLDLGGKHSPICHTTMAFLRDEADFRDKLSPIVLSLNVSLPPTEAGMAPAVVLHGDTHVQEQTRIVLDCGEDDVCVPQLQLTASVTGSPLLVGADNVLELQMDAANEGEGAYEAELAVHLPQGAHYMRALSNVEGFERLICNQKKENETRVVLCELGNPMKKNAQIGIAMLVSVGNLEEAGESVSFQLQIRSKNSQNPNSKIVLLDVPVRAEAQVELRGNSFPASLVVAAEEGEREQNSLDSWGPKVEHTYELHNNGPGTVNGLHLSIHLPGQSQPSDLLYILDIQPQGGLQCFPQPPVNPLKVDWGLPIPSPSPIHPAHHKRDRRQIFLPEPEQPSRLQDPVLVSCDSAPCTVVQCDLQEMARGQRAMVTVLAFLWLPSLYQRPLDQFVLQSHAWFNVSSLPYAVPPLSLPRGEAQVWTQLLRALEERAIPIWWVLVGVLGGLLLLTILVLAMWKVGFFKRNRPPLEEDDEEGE
Chain of ADP-induced human platelet aggregation (P05106 27-788): as the sequence (P05106 27-788) above
Chain of vitronectin receptor (P06756 31-889 limits assumed): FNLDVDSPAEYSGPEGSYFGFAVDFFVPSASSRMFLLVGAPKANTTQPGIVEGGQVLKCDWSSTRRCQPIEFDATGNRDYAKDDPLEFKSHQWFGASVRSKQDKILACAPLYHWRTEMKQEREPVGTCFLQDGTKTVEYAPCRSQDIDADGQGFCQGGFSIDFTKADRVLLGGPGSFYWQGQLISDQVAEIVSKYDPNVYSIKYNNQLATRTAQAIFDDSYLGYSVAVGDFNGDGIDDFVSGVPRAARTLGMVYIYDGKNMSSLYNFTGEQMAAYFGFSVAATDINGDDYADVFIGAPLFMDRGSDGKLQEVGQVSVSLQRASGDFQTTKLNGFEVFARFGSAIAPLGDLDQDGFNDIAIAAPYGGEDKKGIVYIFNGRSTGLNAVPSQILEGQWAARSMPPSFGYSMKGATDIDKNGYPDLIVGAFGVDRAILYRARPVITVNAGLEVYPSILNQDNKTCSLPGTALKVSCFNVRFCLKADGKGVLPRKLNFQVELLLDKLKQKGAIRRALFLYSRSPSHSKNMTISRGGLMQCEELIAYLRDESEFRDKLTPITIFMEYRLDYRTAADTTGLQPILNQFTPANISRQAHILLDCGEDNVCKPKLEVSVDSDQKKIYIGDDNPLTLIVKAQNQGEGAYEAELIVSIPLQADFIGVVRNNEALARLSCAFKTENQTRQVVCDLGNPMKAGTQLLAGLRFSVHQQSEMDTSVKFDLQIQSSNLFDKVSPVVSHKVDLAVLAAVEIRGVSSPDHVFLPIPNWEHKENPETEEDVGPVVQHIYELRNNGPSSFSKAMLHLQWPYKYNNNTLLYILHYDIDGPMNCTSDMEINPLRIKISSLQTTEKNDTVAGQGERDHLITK
Chain of vitronectin receptor (P06756 891-1048 limits assumed): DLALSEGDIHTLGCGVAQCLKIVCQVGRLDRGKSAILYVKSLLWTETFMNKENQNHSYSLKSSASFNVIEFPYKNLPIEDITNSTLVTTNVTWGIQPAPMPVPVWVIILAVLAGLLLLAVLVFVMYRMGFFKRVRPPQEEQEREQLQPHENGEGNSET
Chain of vitronectin receptor (P05106 27-788): as the sequence (P05106 27-788) above

Compound: Mpr-L-homoarginine-Gly-Asp-Trp-Pro-Cys-NH2 • acetate
- stability of liquid solution (in words) ([1]; Example 1: 2 mg/ml in citrate buffer pH 5.00 and 5.50, about 4°C): very stable
- stability of liquid solution (in words) ([1]; Example 1: 2 mg/ml in citrate buffer pH 5.00 and 5.50, up to about 50°C): still stable
- stability of liquid solution (in words) ([1]; Example 1: citrate buffer pH 5.00 and 5.50, 70°C, in comparison to citrate buffer solutions at pH 6.0): much more stable

Compound: NCCCC[C@@H]1NC(=O)CCSSC[C@@H](C(N)=O)NC(=O)[C@@H]2CCCN2C(=O)[C@H](Cc2c[nH]c3ccccc23)NC(=O)[C@H](CC(=O)O)NC(=O)CNC1=O [Analog #19, Mpr-K-G-D-W-P-C-NH2] ([Mpa]KGDWPC-NH2; disulfide 1-7 (inferred))
- platelet aggregation inhibition activity (in words) [2]: good platelet aggregation inhibition activity

Compound: C[C@H](NC(=O)[C@@H]1CSSC[C@H](NC(=O)CN)C(=O)N[C@@H](CCCCN)C(=O)NCC(=O)N[C@@H](CC(=O)O)C(=O)N[C@@H](Cc2c[nH]c3ccccc23)C(=O)N1)C(N)=O [Analog #7] (H-GCKGDWCA-NH2; disulfide 2-7)
- platelet aggregation inhibition activity (in words) [2]: excellent platelet aggregation inhibition activities
- differential: inhibiting the binding of fibrinogen to GP IIb-IIIa as compared to vitronectin to vitronectin receptor (in words) (GP IIb-IIIa): quite specific

Compound: Mpr-Ala-(Har)-G-D-W-P-C-NH2
- stability by HPLC ([3]; 5°C, 0 days): 99.6
- stability by HPLC ([3]; 5°C, 29 days): 98.1
- stability by HPLC ([3]; 5°C, 60 days): 98.3
- stability by HPLC ([3]; 5°C, 90 days): 97.3
- stability by HPLC ([3]; 30°C, 29 days): 97.3
- stability by HPLC ([3]; 30°C, 60 days): 97.3
- stability by HPLC ([3]; 30°C, 90 days): 96.5
- stability by HPLC ([3]; 45°C, 29 days): 95.4
- stability by HPLC ([3]; 45°C, 60 days): 92.6
- stability by HPLC ([3]; 45°C, 90 days): 90.6

Compound: C[C@H](NC(=O)[C@@H]1CSSC[C@H](NC(=O)CN)C(=O)NCC(=O)N[C@@H](CCCCN)C(=O)NCC(=O)N[C@@H](CC(=O)O)C(=O)N[C@@H](Cc2c[nH]c3ccccc23)C(=O)N2CCC[C@H]2C(=O)N1)C(N)=O [Analog #3, G-C-G-K-G-D-W-P-C-A-NH2]
- effect on M21 cell attachment to vitronectin (in words) (M21 melanoma cells; up to 60 uM): ineffective

Compound: NCCCC[C@@H]1NC(=O)CNC(=O)[C@@H](N)CSSC[C@@H](C(N)=O)NC(=O)[C@@H]2CCCN2C(=O)[C@H](Cc2c[nH]c3ccccc23)NC(=O)[C@H](CC(=O)O)NC(=O)CNC1=O [Analog #5] (H-CGKGDWPC-NH2; disulfide 1-8)
- platelet aggregation inhibition activity (in words) [2]: excellent platelet aggregation inhibition activities
- differential: inhibiting the binding of fibrinogen to GP IIb-IIIa as compared to vitronectin to vitronectin receptor (in words) (GP IIb-IIIa): quite specific

Compound: C[C@H](NC(=O)[C@@H]1CSSC[C@H](NC(=O)CN)C(=O)NCC(=O)N[C@@H](CCCNC(=N)N)C(=O)NCC(=O)N[C@@H](CC(=O)O)C(=O)N[C@@H](Cc2c[nH]c3ccccc23)C(=O)N2CCC[C@H]2C(=O)N1)C(N)=O [reference compound] (H-GCGRGDWPCA-NH2; disulfide 2-9)
- effect on cell adhesion / attachment to vitronectin (in words) (M21 melanoma cells): potent inhibitors of cell attachment

Compound: [E^28L^41C^64]barbourin (28-73):E-C-A-D-G-L-C-C-D-O-CRFLKKGTVCRVAKGDWNDDTCTG-O-S-C-D-C-P-R-N-G-L-Y-G [Analog #1]
- platelet aggregation inhibition activity (in words) [2]: potent inhibitors of platelet aggregation
- affinity for GP IIb-IIIa (ability to inhibit the binding of fibrinogen to GP IIb-IIIa) (GP IIb-IIIa): high affinity
- affinity for VnR (vitronectin receptor): relative lack of affinity
- effect on cell adhesion / attachment to vitronectin (in words) (M21 melanoma cells): Neither barbourin nor Peptide 1 (truncated barbourin) had a significant effect

Compound: N=C(N)NCCCC[C@@H]1NC(=O)CCSSC[C@@H](C(N)=O)NC(=O)[C@@H]2CCCN2C(=O)[C@H](Cc2c[nH]c3ccccc23)NC(=O)[C@H](CC(=O)O)NC(=O)CNC1=O [Analog #60, Mpr-(Har)-G-D-W-P-C-NH2] ([Mpa][hArg]GDWPC-NH2; disulfide 1-7 (inferred))
- platelet aggregation inhibition activity (in words) [2]: efficient at vanishingly small concentrations
- effect on cell adhesion / attachment to vitronectin (in words) (M21 melanoma cells): relatively less effective

Compound: C[C@H](NC(=O)[C@@H]1CSSC[C@H](NC(=O)CN)C(=O)N[C@@H](CCCCN)C(=O)NCC(=O)N[C@@H](CC(=O)O)C(=O)N[C@@H](Cc2c[nH]c3ccccc23)C(=O)N2CCC[C@H]2C(=O)N1)C(N)=O [Analog #4] (H-GCKGDWPCA-NH2; disulfide 2-8)
- differential: inhibiting the binding of fibrinogen to GP IIb-IIIa as compared to vitronectin to vitronectin receptor (in words) (GP IIb-IIIa): highest differential
